“Also recorded” adds a separate entry of the source.
Columns and labels:
[1] = tested on: human neuroblastoma SH-SY5Y cells; conditions: MPP^+ or PSI exposure; cited from earlier work
[2] = tested on: SH-SY5Y neuroblastoma cells; conditions: 1-100 μM; 24 hr
Protocol: (§1) Undifferentiated SH-SY5Y human neuroblastoma cells (ATCC, Manasses, Va.) were maintained in humidified 5% CO2 in 1:1 Ham's F12 nutrient mixture with Glutamax® and Minimal Essential Medium with L-glutamine (MEM-Alpha), 10% FBS, and 1% penicillin/streptomycin (Gibco® Invitrogen Corp., Carlsbad, Calif.).
(§2) Cellular viability was measured using CellTiter-Blue® (Promega Corp., Madison, Wis.) in black-walled optical imaging multiwell plates, and cellular ATP was measured using the CellTiter-Glo® (Promega Corp., Madison, Wis.) luminescence assay in opaque-walled multiwell plates according to the manufacturer's protocol.

[3] = molecular target: leak conductance of SMVs enriched in F1FO ATP synthase (complex V) (Rattus norvegicus, UniProt P19511+Q06647); experiment: biochemical
Protocol: Reagents were rapidly perfused into the recording chamber.
(§3) Giga-ohm seals were formed on SMVs using pipettes and solutions as above. Peak membrane conductance was measured as described above.

SMVs (F1FO ATP synthase) = SMVs (F1FO ATP synthase) (Rattus norvegicus, UniProt P19511+Q06647); conditions: 20 μM unlabeled dexpramipexole; non-urea treated SMVs; preliminary experiment
[4] = tested on: leak conductance of urea-treated SMVs; experiment: Patch clamp recordings of urea-treated SMVs (F1 removed); type: biochemical, rat
Protocol: F1 subunits were removed from SMVs by adapting previously-established methods. 60 mg SMV's/1 mL IB was treated with 1 mL of […] for 5 min. on ice, then centrifuged at 21000×g for 10 min. The pellet was washed 3× in IB (centrifugation at 21000×g for 10 min) and stored in IB.
as §3

citrate synthase = conditions: dexpramipexole 30 μM
Protocol: (§4) Primary rat cortical cultures were incubated with digitonin (10 μg/ml) and rotenone (100 nM) for 45 minutes in MAS1 buffer prior to measurement of oxygen consumption rate (OCR) by a Seahorse® flux analyzer. […] Data are shown as a percentage of the control group OCR±SEM.

[5] = molecular target: human F1FO ATP synthase b subunit (Homo sapiens, UniProt P24539); conditions: co-incubation in 'cold' dexpramipexole (100 μM)
[6] = molecular target: ATP synthesis in liver mitochondria (Rattus norvegicus, UniProt P19511+Q06647)
Protocol: Synthesis of ATP in liver mitochondria was measured using an ATP determination kit (A-22066; Molecular Probes, Eugene, Oreg.), supplemented with 1 mM sodium succinate and 500 nM rotenone. Assays were performed in 96-well microplates (Becton Dickinson, Franklin Lakes, N.J.) in a final volume of […] consisting of 10 μL mitochondria (0.1 mg protein/ml final concentration), 10 μL of drug or control buffer and 90 μL ATP-determination reaction mixture. After a 5 min. recording of basal luciferase-generated luminescence, ADP (final concentration, 10 μM, 10 μL) was injected into each well. Luminescence was recorded every 6 sec for 15-20 min.

complex V (F1FO ATPase) = complex V (F1FO ATPase) (Rattus norvegicus, UniProt P19511+Q06647); experiment: ATP hydrolysis in SMVs, luciferin-luciferase assay; type: biochemical; parameters: from tissue; host or cells: rat brain mitochondria, lubrol-insoluble submitochondrial vesicles (SMVs)
Text: 3 wells were used for each condition, repeated at least 3× on different SMV isolations.

[7] = tested on: models of cell death and NDDs; conditions: compared with pramipexole; cited from earlier work
[8] = doses that should produce pharmacodynamically effective CNS concentrations; cited from earlier work
[9] = tested on: digitonin-permeabilized cultured cortical neurons
Protocol: as §4
Primary cultures of cortical neurons were prepared as described previously, plated at 8×10^5 cells/well for Seahorse XF24 experiments and grown in Neurobasal A supplemented with B27, 1 mM glutamine and penicillin/streptomycin for […] in vitro (DIV). On DIV 7, media without antibiotics was substituted. The cultures were used on DIV 9-10.
OCR and ECAR were measured with a Seahorse® XF24 Flux Analyzer (Seahorse Bioscience, Billerica, Mass.). For PSI experiments on C2C12 cells, basal values were assessed in non-buffered DMEM Assay Medium without glucose, glutamine or pyruvate, and supplemented with 25 mM glucose, 6 mM Glutamax®, and 1 mM sodium pyruvate. […] Succinate and ADP stocks were diluted to 10× concentrations in pre-warmed XF MAS buffer, pH 7.2. Using a Plate Prep Station (Seahorse Bioscience, Billerica, Mass.), cells were washed with 1 mL buffer and were brought to 607 μL with buffer. […] Raw basal OCR and ECAR values were normalized as a percent of the mean control value for each individual experiment. Normalized data from experiments were expressed as mean±SEM.

[10] = tested on: SH-SY5Y neuroblastoma cells; experiment: PSI-induced cell death in SH-SY5Y cells (CellTiter-Blue)
Protocol: Data shown represent mean±SEM. […] Bar graphs represent normalized mean±SEM. Cell viability was measured by CellTiter-Blue®; n=41-98 wells/condition.
as §1, §2

[11] = 30 μM applied 1 hr prior to recording

## CCCN[C@@H]1CCc2nc(N)sc2C1 [dexpramipexole, (6R)-4,5,6,7-tetrahydro-N-6-propyl-2,6-benzothiazole-diamine]
[1]
  in vitro cytoprotection: significant concentration-dependent in vitro cytoprotection
[2]
  maximal group increases in ATP levels relative to control: ~18%
[3]
  EC50: 111 nM
[3]; high [Ca^2+], 2 μM dexpramipexole, 1.0 μM CSA
  currents in SMVs: inhibited
SMVs (F1FO ATP synthase)
  reduction in ^14C-dexpramipexole binding by competition: 34%
[4]
  leak conductance after removal of F1: no longer inhibited the conductance
Citrate synthase
  levels of citrate synthase: unchanged
[5]
  competition of ^14C-dexpramipexole binding to b subunit: significantly reduced binding
[6]
  Hill slope of CRC: < 1
Complex V (F1FO ATPase)
  EC50: 1630 nM
[7]
  protection: equally protective
[8]
  safety and tolerability: safe and well-tolerated
[9]; [11]
  OCR during succinate incubation: lower OCR
  OCR following an ADP pulse: significantly lower OCR
[9]; acute application 30 μM
  increase in OCR produced by succinate and following the ADP pulse: less than in control cells
[9]; acute application 30 μM, rotenone
  basal respiration: did not affect
[10]
  cytoprotective concentrations: ≥ 10 µM
[10]; pretreatment with dexpramipexole
  protection against PSI-induced cell death: protective; also recorded: inhibited PSI-induced cell death in a concentration-dependent manner
